# Measured values as given in patent publication US7365202B2, “Polymorphs of an androgen receptor modulator” (Merck & Co., Inc., priority 2005, dated 2008).
# Assays:
# [1] = Description: The weight increase was based on the initial total sample weight at 25% RH.
# [2] = system: human AR in MDA-MB-453 cells; test: Trans-Activation Modulation of Androgen Receptor (TAMAR), MMTV-LUC reporter; assay type: cell-based
# Description: Trans-Activation Modulation of Androgen Receptor (TAMAR)
# This assay assesses the ability of test compounds to control transcription from the MMTV-LUC reporter gene in MDA-MB-453 cells, a human breast cancer cell line that naturally expresses the human AR. The assay measures induction of a modified MMTV LTR/promoter linked to the LUC reporter gene.
# 20,000 to 30,000 cells/well are plated in a white, clear-bottom 96-well plate in “Exponential Growth Medium” which consists of phenol red-free RPMI 1640 containing 10%FBS, 4 mM L-glutamine, 20 mM HEPES, 10 ug/mL human insulin, and 20 ug/mL gentamicin. Incubator conditions are 37° C. and 5% CO2. The transfection is done in batch mode. The cells are trypsinized and counted to the right cell number in the proper amount of fresh media, and then gently mixed with the Fugene/DNA cocktail mix and plated onto the 96-well plate. All the wells receive 200 TI of medium+lipid/DNA complex and are then incubated at 37° C. overnight. The transfection cocktail consists of serum-free Optimem, Fugene6 reagent and DNA. The manufacturer's (Roche Biochemical) protocol for cocktail setup is followed. The lipid (Tl) to DNA (Tg) ratio is approximately 3:2 and the incubation time is 20 minutes at room temperature. Sixteen to 24 hrs after transfection, the cells are treated with test compounds such that the final DMSO (vehicle) concentration is <3%. […]
# [3] = target: T1, rhAR NTD/CTD interaction in CV-1 monkey kidney cells (Macaca mulatta, UniProt Q6QT55); test: Mammalian two-hybrid assay for ligand-induced interaction of N-terminus and C-terminus domains of the androgen receptor (agonist mode: VIRCON); assay type: cell-based; conditions: at 10 micromolar; read-out: agonist activity (Emax relative to the activity obtained with 3 nM R1881)
# T1 construct: pCBB1 (Gal4DBD-rhARLBD fusion construct expressed under the SV40 early promoter); expressed in transfected cells; host or cells: CV-1 monkey kidney cells
# T1 sequence (Q6QT55 644-895): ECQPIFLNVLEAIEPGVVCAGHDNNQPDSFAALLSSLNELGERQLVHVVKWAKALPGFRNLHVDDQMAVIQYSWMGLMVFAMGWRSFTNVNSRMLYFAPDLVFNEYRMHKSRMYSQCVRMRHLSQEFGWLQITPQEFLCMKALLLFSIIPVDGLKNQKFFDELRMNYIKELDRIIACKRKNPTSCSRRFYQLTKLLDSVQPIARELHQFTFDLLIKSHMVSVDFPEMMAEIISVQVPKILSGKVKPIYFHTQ
# Description: Mammalian Two-Hybrid Assay for the Ligand-Induced Interaction of N-Terminus and C-Terminus Domains of the Androgen Receptor (Agonist Mode: VIRCON)
# This assay assesses the ability of AR agonists to induce the interaction between the N-terminal domain (NTD) and C-terminal domain (CTD) of rhAR that reflects the in vivo virilizing potential mediated by activated androgen receptors. The interaction of NTD and CTD of rhAR is quantified as ligand induced association between a Gal4DBD-rhARCTD fusion protein and a VP16-rhARNTD fusion protein as a mammalian two-hybrid assay in CV-1 monkey kidney cells.
# The day before transfection, CV-1 cells are trypsinized and counted, and then plated at 20,000 cells/well in 96-well plates or larger plates (scaled up accordingly) in DMEM+10% FCS. […]
# For each well, 0.4 μL LIPOFECTAMINE Reagent (GIBCO-BRL) is diluted into 4.6 μL OPTI-MEM in a second tube and mixed to form the diluted LIPOFECTAMINE Reagent. […] Forty eight hours later, luciferase activity is measured using LUC-Screen system (TROPIX) following the manufacturer's protocol. […] After incubation for 40 minutes at room temperature, luminescence is directly measured with 2-5 second integration. […]
compound,measurement,setting,value
"CN1C(=O)C(F)=C[C@]2(C)[C@H]3CC[C@]4(C)[C@@H](C(=O)NCc5nc6ncccc6[nH]5)CC[C@H]4[C@@H]3CC[C@@H]12 [Form B, N-(3H-imidazo[4,5-b]pyridin-2-ylmethyl)-2-fluoro-4-methyl-3-oxo-4-aza-5α-androst-1-en-17β-carboxamide]",loss of total weight,"[1]; 25° C., relative humidity decreases from 95% to 5% RH",about 8%
same,moisture uptake (weight increase based on initial total sample weight at 25% RH),[1]; from about 25% to about 95% RH at 25° C.,about 7%
"CN1C(=O)C(F)=C[C@]2(C)C3CC[C@]4(C)[C@@H](C(=O)NCc5nc6cccnc6[nH]5)CC[C@H]4C3CC[C@@H]12 (stereo partly drawn) [compound of formula I, N-(3H-imidazo[4,5-b]pyridin-2-ylmethyl)-2-fluoro-4-methyl-3-oxo-4-aza-5-alpha-androst-1-en-17-beta-carboxamide]",partial agonist activity (Emax relative to the activity obtained with 100 nM R1881),[2],greater than 10%
same,Emax at 10 µM,[3],< 50%
